# Experimental data: patent US10434225B2, “Para-xylene films and therapeutic uses thereof” (NORTHWESTERN UNIVERSITY, priority 2013, dated 2019)
# Tested on: Interleukin-6 (IL-6)
# Experiment: IL-6 gene expression by real-time PCR in macrophages on surfaces
# Type: cell-based, murine
# Conditions: RAW264.7 macrophages, LPS stimulated (+), DEX added to Control or integrated into PPX film
# Protocol: In-vitro analysis and drug release was completed through deposition of PPX on varying culture plates. Surface treatment of prepared PPX culture plates either had plasma oxidation (Oxd) or lack thereof resulting in hydrophilic or hydrophobic surfaces (native form). RAW264.7 macrophages and NIH-3T3 fibroblasts were analyzed on varying surfaces to determine in-vitro response. Cells were kept in DMEM media supplemented with 10% FBS and 1% Pen/Strep in humidified atmosphere with 5% CO^2. Cellular analysis was completed through the application of time lapse bright field imaging in addition to multiple cellular assays examining viability (MTT, Roche Diagnostics), proliferation (CyQUANT, Life Technologies) and adhesion (Vybrant, Molecular Probes) onto polystyrene, representing baseline biocompatible control surfaces, and various PPX surfaces. RNA isolation was accomplished utilizing TRIzol reagent (Invitrogen Corporation, Carlsbad, Calif.) per the manufacturer's guidelines. cDNA was synthesized using the iScript Select cDNA Synthesis Kit (Quanta Biosciences, Gaithersburg, Md.). PCR was done using SYBER Green detection reagents (Quanta Biosciences, Gaithersburg, Md.) and appropriate primers for IL-6 and β-Actin (Integrated DNA Technologies, Coralville, Iowa). Samples were amplified using a MyiQ real-time PCR detection system (Bio-Rad).
smiles,measurement,value
"C[C@@H]1C[C@H]2[C@@H]3CCC4=CC(=O)C=C[C@]4(C)[C@@]3(F)[C@@H](O)C[C@]2(C)[C@@]1(O)C(=O)CO [DEX, dexamethasone]","IL-6 expression, LPS stimulation (+) with DEX",217.4±54.0
